What was measured:
[1] = target: T1, BRD4 (Homo sapiens, UniProt O60885); assay: CURE-PRO-mediated BRD4 degradation in HeLa cells, Western blot; assay type: cell-based; design: endogenous in cells; host or cells: HeLa; conditions: 24 h, 10 μM
Description: (§1) All cell lines were purchased from ATCC or DSMZ and grown at 37° C. with 5% C02. Human HeLa cells were cultured in complete growth medium (Dulbecco's modified Eagle's medium (DMEM) supplemented with 10% FBS); MCF7 cells were cultured in complete growth medium (Dulbecco's modified Eagle's medium (DMEM) supplemented with 10% FBS and 0.01 mg/ml human recombinant insulin (Sigma Aldrich); Namalwa and MOLM-13 cells were cultured in complete growth medium (RPMI 1640 medium supplemented with 10% FBS); MV-4-11 were cultured in complete growth medium (Iscove's Modified Dulbecco's medium, supplemented with 10% FBS); HCT116 cells were cultured in complete growth medium (McCoy's 5a Medium supplemented with 10% FBS). For cellular degradation of BRD4 studies, cells were seeded in a 12-well plate at 70-80% confluency, allowed to attach overnight, and incubated with the indicated compounds for the indicated time. When indicated, a 15-minute pretreatment with 10 μM pomalidomide, 10 μM VHL298, 10 μM Nutlin3a, 1 μM MG-132 or 1 μM Carfilzomib was performed before the addition of CURE-PROs. For washout studies, after CURE-PRO treatment, media was aspirated and incubated with complete medium for the indicated time before lysis.
(§2) Anti-BRD4 (13440, 1:1,000 dilution for Western Blot and 1:25 dilution for ProteinSimple); Anti-BRD2 (5848 1:1,000 dilution for Western Blot and 1:25 dilution for ProteinSimple); β-Actin (3700, 1:2,000 dilution for Western Blot), β-Actin (4970, 1:50 dilution for ProteinSimple) anti-mouse IgG-HRP, and anti-rabbit IgG-HRP antibodies were purchased Cell Signaling Technology. Anti-GAPDH (600-401-A33, 1:100 dilution for ProteinSimple) was purchased from Rockland Immunochemicals, Inc. Anti-BRD3 (sc-81202, 1:200 dilution for Western Blot) was purchased from Santa Cruz Biotechnology.
HeLa, MCF7, or HCT116 cells (2.5-3×10^6) were treated for 24 hours with the indicated compounds solubilized in DMSO. The cells were washed in ice-cold PBS and were then lysed in RIPA lysis buffer (150 mM NaCl, 5 mM EDTA, 1% NP-40, 0.5% sodium deoxycholate, 0.1% SDS, 50 mM Tris, pH 8.0) with Roche protease inhibitor complete cocktail and phosphatase inhibitors (10 mM sodium fluoride, 10 mM sodium pyrophosphate, 1 mM sodium orthovanadate and 20 mM β-glycerophosphate). The total protein concentrations were determined by Bradford Protein Assay and 10-20 μg of protein was loaded onto 4-15% Tris-Glycine gradient gels (Biorad). After standard gel electrophoresis, the separated proteins were transferred to PVDF membrane by wet transfer. The immunoblots were then blocked for 1 hour in 5% skim milk in TBST or 5% BSA in TBST, according to manufacturer's instructions, before an overnight incubation at 4° C. with indicated antibodies and membranes. Membranes were then incubated with the appropriate horseradish peroxidase-conjugated secondary antibodies (1:5,000 dilution) for 1 h at room temperature and the bands were visualized using the Clarity Max Western ECL Substrate (Biorad) and the ChemiDoc Imaging System (Biorad). Signal was detected with ECL Western Blotting Substrate (Pierce) and X-ray film processed with a Konica SRX-101 X-ray film processor or captured by Bio-Rad's Chemidoc Imaging system.
HeLa cells (2.5×10^6) were treated for 24 hours with the sample compounds solubilized in DMSO. Compounds were added at 1-10 μM each. Standardized protein samples were electrophoresed and imaged as described in the immunoblotting description above. FIGS. 6-18 depicts the CURE-PRO-mediated BRD4 degradation for BRD monomers (JQ1 derivatives comprising of catechol linkers), and CRBN ligands, 8048 and 8049 (pomalidomide derivatives comprising boronic acid linkers) combined in a 1:1 ratio.
HeLa cells (2.5×10^6) were treated for 24 hours with the compounds solubilized in DMSO. The compounds were added at 10 μM each. Standardized protein samples were electrophoresed and imaged as described in the immunoblotting section above. […]

[2] = target: T1, BRD4; assay: CURE-PRO-mediated BRD4 degradation in HeLa cells, WES capillary electrophoresis (ProteinSimple); assay type: cell-based; design: endogenous in cells; host or cells: HeLa
Description: as §1, §2
WES Simple analysis was performed on WES system (ProteinSimple-Biotechne) according to the manufacturer's instructions. Total protein concentrations of cell lysates were determined by the Pierce BCA kit (Thermo Fisher). 3 μL of 0.3 μg/uL of the protein lysate was loaded onto a 12- to 230-kDa WES assay plate (ProteinSimple) where 300 nL sample was withdrawn through a capillary, subjected to electrophoretic separation of proteins by size, and followed by the simultaneous, HRP-based detection of proteins using the Anti-Rabbit Detection Module (Proteinsimple: #DM-001). The electropherograms were checked then the automatic peak detection was manually corrected if it was required.
HeLa cells (2.5×10^6) were treated for 4-24 hours with the compounds solubilized in DMSO. After 4 hours, indicated points were washed and cells were left in full growth media. Compounds were added at 10 μM each. […]

[3] = target: T1, BRD4; assay: Summary of E3 ligase directed degradation of BRD4, estimated from Western Blot or WES (Tables 1-6); assay type: cell-based; design: endogenous in cells; host or cells: HeLa, MCF7 or HCT116
How it was run: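 HeLa, MCF7 or HCT116 cells treated 24 h with compounds in DMSO, lysed in RIPA buffer; BRD4 levels read by Western blot (ECL detection) or capillary WES with HRP detection. Check mark denotes 30% to 70% or higher protein degradation.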

[4] = system: SLC19A1; assay: Suppression of the c-MYC downstream target gene SLC19A1, RT-PCR in HeLa cells; assay type: cell-based, Human; conditions: 24 h, 10 μM each
Description: The suppression of the expression of the downstream c-MYC target, SLC19A1, was measured by RT-PCR using Power SYBR® Green Cells-to-Ct™ Kit (Life Technologies). Adherent cells were plated on 96 well plates at 5,000 cells per well were treated for 24 h with monomer compounds and compounds capable of reversible interactions (1 nM-100 μM). Cells were subsequently washed in ice-cold PBS processed according to the manufacturer's instructions. Quantitative real-time PCR was performed using a ViiA™ 7 Real-time PCR System (Applied Biosystems, Foster City, CA, USA). GAPDH and ACTB served as internal controls. The primers used were (5′-3′): GAPDH-F: AGCCACATCGCTCAGACAC (SEQ ID NO:9), GAPDH-R: GCCCAATACGACCAAATCC (SEQ ID NO:10), ACTB-F: CCAACCGCGAGAAGATGA (SEQ ID NO:11), ACTB-R: […] (SEQ ID NO:12), SLC19A1-F: […] (SEQ ID NO:13), SLC19A1-R: […] (SEQ ID NO:14).
HeLa cells (1×104) were treated for 24 hours in 96 well plates with the compounds solubilized in DMSO. Compounds were added at 10 μM each and RNA expression measured by the Cells-to Ct method described above (Thermofisher).

[5] = target: T1, BRD4; assay: BRD protein family degradation in HCT116 cells with MDM2 ligands, Western blot: BRD4; assay type: cell-based; design: endogenous in cells; host or cells: HeLa, MCF7 or HCT116; conditions: 24 h, with MDM2 ligands 8310 / 8312
Description: as §1, with “When indicated, a 15-minute pretreatment with 10 μM pomalidomide, 10 μM VHL298, 10 μM Nutlin3a, 1 μM MG-132 or 1 μM Carfilzomib was performed before the addition of CURE-PROs. For washout studies, after CURE-PRO treatment, media was aspirated and incubated with complete medium for the indicated time before lysis.” left out
HeLa, MCF7, or HCT116 cells (2.5-3×10^6) were treated for 24 hours with the indicated compounds solubilized in DMSO. […] The total protein concentrations were determined by Bradford Protein Assay and 10-20 μg of protein was loaded onto 4-15% Tris-Glycine gradient gels (Biorad). […] Signal was detected with ECL Western Blotting Substrate (Pierce) and X-ray film processed with a Konica SRX-101 X-ray film processor or captured by Bio-Rad's Chemidoc Imaging system. […]

Row | SMILES | BRD4 degradation with pomalidomide and the BRD ligand (no 8047) [1] | BRD4 degradation after preincubation with pomalidomide ([1]; 1:1 with CRBN ligand 8047, pomalidomide preincubated 15 min at equimolar concentration) | BRD4 degradation, time dependence and washout ([2]; 4-24 h, 10 μM each, co-dosed with CRBN ligand 8047, washed after 4 h) | BRD4 degradation ([2]; 24 h, co-dosed with CRBN ligand 8047, 100 nM-10 μM each) | Degradation of BRD4, combination with CRBN ligand [drawing 421] ([3]; Table 1, CRBN ligand drawn as drawing 421 (by the text apparently 8047)) | Degradation of BRD4, combination with CRBN ligand [drawing 422] ([3]; Table 1, CRBN ligand drawn as drawing 422 (by the text apparently 8066)) | suppression of SLC19A1 expression ([4]; with MDM2 ligand 8310) | suppression of SLC19A1 expression ([4]; with MDM2 ligand 8312) | selectivity of degradation within the BRD protein family [5] | Degradation of BRD4, combination with CRBN ligand [drawing 457] ([3]; Table 4, aryl-boronic acid-containing CRBN ligand drawn as drawing 457 (by the text apparently 8048)) | Degradation of BRD4, combination with MDM2 ligand [drawing 463] ([3]; Table 5, aryl-boronic acid-containing MDM2 ligand drawn as drawing 463 (apparently 8310)) | Degradation of BRD4, combination with MDM2 ligand [drawing 464] ([3]; Table 5, aryl-boronic acid-containing MDM2 ligand drawn as drawing 464 (apparently 8312))
1 | CCNC(=O)C[C@@H]1N=C(c2ccc(Sc3cccc(B(O)O)c3)cc2)c2cc(OC)ccc2-n2c(C)nnc21 [BRD-E52, (3-((4-((4S)-4-(2-(ethylamino)-2-oxoethyl)-8-methoxy-1-methyl-4H-benzo[f][1,2,4]triazolo[4,3-a][1,4]diazepin-6-yl)phenyl)thio)phenyl)boronic acid] | failed to induce BRD4 degradation | inhibition of CURE-PRO-mediated BRD4 degradation | marked BRD4 degradation after 4 h with sustained degradation for up to 8 h after drugs are washed out | marked BRD4 degradation | ✓ (A black check mark indicates efficacy of 30% to 70% or higher protein degradation) | ✓ (A black check mark indicates efficacy of 30% to 70% or higher protein degradation) |  |  |  |  |  | 
2 | CCNC(=O)C[C@@H]1N=C(c2ccc(Cl)cc2)c2cc(OCCOCCNC(=O)c3cccc(O)c3O)ccc2-n2c(C)nnc21 [BRD-N39, N-(2-(2-(((4S)-6-(4-chlorophenyl)-4-(2-(ethylamino)-2-oxoethyl)-1-methyl-4H-benzo[f][1,2,4]triazolo[4,3-a][1,4]diazepin-8-yl)oxy)ethoxy)ethyl)-2,3-dihydroxybenzamide] |  |  |  |  |  |  | a rightward shift in the curve and an increase in the Ct values | Complete suppression of SLC19A1 was evident | some selectivity for BRD4 over BRD2 and BRD3 | ✓ (A black check mark indicates efficacy of 30% to 70% or higher protein degradation) | ✓ (A black check mark indicates efficacy of 30% to 70% or higher protein degradation) | ✓ (A black check mark indicates efficacy of 30% to 70% or higher protein degradation)
